Test results as given in patent US20100278751A1, “RADIOLABELED 2-AMINO-4-ALKYL-6-(HALOALKYL)PYRIDINE COMPOUNDS AND THEIR USE IN DIAGNOSTIC IMAGING” (WASHINGTON UNIVERSITY, priority 2009, published 2010).
Where two headings read alike, the source gives them in different places.

Columns and labels:
[1] = target: T1, iNOS (Mus musculus, UniProt P29477); assay: Blocking studies of tracer uptake in LPS-treated mice; assay type: in vivo
T1 construct: from tissue
Protocol: This example describes blocking studies. […] P., et al., J. Biol. Chem. 272: 4959-4963, 1997). […] At 1 h post injection, % ID in lung was determined.

[2] = target: T2, iNOS (Homo sapiens, UniProt P35228); assay: iNOS activity, nitric oxide synthase screening kit (IC50); assay type: biochemical
T2 sequence (P35228 whole entry): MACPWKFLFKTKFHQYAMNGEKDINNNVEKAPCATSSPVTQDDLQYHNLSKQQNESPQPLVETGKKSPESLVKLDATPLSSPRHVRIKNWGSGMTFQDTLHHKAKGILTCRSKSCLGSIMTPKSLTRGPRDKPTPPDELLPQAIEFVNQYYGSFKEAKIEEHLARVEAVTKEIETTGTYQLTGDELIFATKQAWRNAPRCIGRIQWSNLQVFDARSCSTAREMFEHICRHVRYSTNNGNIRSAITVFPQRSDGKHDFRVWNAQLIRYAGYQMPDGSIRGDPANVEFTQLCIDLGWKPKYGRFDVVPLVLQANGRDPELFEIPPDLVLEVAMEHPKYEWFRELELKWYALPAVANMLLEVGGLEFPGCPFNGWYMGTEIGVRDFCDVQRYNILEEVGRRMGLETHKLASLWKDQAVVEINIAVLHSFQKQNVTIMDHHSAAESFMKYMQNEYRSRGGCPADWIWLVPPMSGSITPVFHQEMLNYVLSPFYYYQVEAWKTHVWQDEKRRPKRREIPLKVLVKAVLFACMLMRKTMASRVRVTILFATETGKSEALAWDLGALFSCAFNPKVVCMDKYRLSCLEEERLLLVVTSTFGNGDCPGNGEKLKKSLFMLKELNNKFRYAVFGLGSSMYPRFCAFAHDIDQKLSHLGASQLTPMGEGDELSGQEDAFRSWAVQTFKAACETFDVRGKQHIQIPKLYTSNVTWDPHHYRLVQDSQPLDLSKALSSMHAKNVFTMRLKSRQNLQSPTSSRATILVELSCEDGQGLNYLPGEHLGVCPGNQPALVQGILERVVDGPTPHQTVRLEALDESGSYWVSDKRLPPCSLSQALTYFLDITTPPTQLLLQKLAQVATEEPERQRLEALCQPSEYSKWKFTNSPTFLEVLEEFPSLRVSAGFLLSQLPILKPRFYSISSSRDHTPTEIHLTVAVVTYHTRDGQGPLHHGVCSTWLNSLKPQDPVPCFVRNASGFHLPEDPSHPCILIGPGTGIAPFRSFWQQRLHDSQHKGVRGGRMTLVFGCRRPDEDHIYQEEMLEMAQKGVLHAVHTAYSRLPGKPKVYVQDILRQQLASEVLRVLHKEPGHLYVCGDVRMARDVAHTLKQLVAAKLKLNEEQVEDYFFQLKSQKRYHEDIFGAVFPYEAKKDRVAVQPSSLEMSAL
Protocol: The IC50 for inhibiting iNOS was determined for various compounds, as shown in FIG. 3 and FIG. 4 In these experiments, IC50 determinations for a compound was made by measuring iNOS activity in the presence of a compound at multiple concentrations. iNOS activity was measured by assays using the nitric oxide synthase screening kit (GE Healthcare Biosciences Corp., Piscataway, N.J.) following the manufacturer's protocols.

[3] = target: T2, iNOS; settings: cited from earlier work
[4] = target: eNOS (Homo sapiens, UniProt P29474); assay: eNOS selectivity, nitric oxide synthase screening kit (IC50); assay type: biochemical
Protocol: (§1) All assays were performed using the nitric oxide synthase screening kit (GE Healthcare Biosciences Corp., Piscataway, N.J.) following the manufacturer's protocols.

[5] = target: nNOS (Homo sapiens, UniProt P29475); assay: nNOS selectivity, nitric oxide synthase screening kit (IC50); assay type: biochemical
Protocol: as §1

[6] = In vitro stability in heparinized rat whole blood; assay type: in vitro ADME, Sprague-Dawley rat; settings: 37° C.
Protocol: The in vitro stability of [^18F]compound 14 was tested by using heparinized blood from an adult male Sprague-Dawley rat. [^18F]compound 14 was relatively stable in the whole blood for 2 h at 37° C. At 1 h, approximately 80% of the activity recovered from lysed whole blood was observed as [^18F]compound 14, and at 2 h, approximately 75% of the recovered activity was still in the form of [^18F]compound 14.

[7] = Biodistribution in control vs. LPS treated mice; assay type: in vivo, C57BL/6 mice
Protocol: This example describes the results of in vivo studies on the biodistribution of iNOS inhibitors. The biodistribution studies were performed in mature male C57BL/6 mice. One group of mice was treated with bacterial lipopolysaccharide (LPS) (10 mg/kg, administered intravenously) to induce iNOS expression, and a control group was left untreated.

[8] = target: T1, iNOS; assay: microPET imaging study in LPS-treated and control mice; assay type: in vivo; settings: LPS intratracheally treated mouse vs control mouse
Protocol: Two mice, one intratracheally treated with LPS, and a control mouse, were injected with [^18F]compound 14. […] This difference in tracer accumulation is consistent with the difference in accumulation of iNOS described between LPS-treated and control mice in the preceeding examples.

[9] = In vivo stability (percent parent compound in plasma/blood) in rats; set-up: species or system Sprague-Dawley rats
Protocol: Adult male Sprague-Dawley rats were injected with [^18F]compound 14, and at 5 and 30 minutes post injection, plasma samples were obtained. Supernatants from the plasma samples were analyzed by silica gel radio-TLC and reversed phase HPLC. After 30 minutes, the percent parent compound was only 20.2%. Additionally, within 5 minutes post injection, only 40.3% of the activity in the blood was [^18F]compound 14, which was confirmed by HPLC co-elution with non-radioactive compound 14. According to the HPLC analysis, the major metabolite, constituting 50% of the activity in blood at 5 minutes post injection, was very polar but was not free [^18F] fluoride. This observation is also consistent with the low bone uptake reported in biodistribution studies.

[10] = iNOS, read-out: IC50 (standards for measuring IC50)
[11] = iNOS, read-out: IC50 of tested compounds
[12] = measured against SEITU, L-NIL and 2-AP as standards, read-out: IC50 for iNOS
[13] = read-out: Selectivity (IC50) iNOS

With Cc1ccnc(N)c1 [2-amino-4-methylpyridine] the “blocking of increased uptake of [18F]compound 14” value ([1]; blocker 10 mg/kg intravenously) was “failed to block”.
With CC(=N)NCc1cccc(CN)c1 [1400 W, N-(3-(aminomethyl)benzyl)acetamidine] the “tracer uptake in the lungs and blood blocked” value ([1]; blocker 5 mg/kg i.v. immediately before [18F]compound 14, 1 h post injection) was 32%.
In the case of Nc1ncc2[nH]cnc2n1 [Compound 2-AP, 2-aminopurine, reference compound], the IC50 [2, 10] is given as 108 ± 34.5 nM and the IC50 ([3]; reported value for standards) is given as 170 nM.
Cc1cc(N)nc(CC(C)C)c1 [Compound 11] showed a melting point of 59 to 61 °C and an IC50 [2, 11] of 193 ± 38 nM.
For Cc1cc(N)nc(CC(C)F)c1 (stereo not shown) [Compound 14], the IC50 [4] was 1520 ± 300 nM, the IC50 [5] was 493 ± 80.8 nM and the IC50 [2, 11] was 54.3 ± 8.9 nM. It also gave an IC50 [2, 12] of under 190 nM and an IC50 [2, 13] of 54.3 ± 8.9 nM.
With CC(C)=Cc1cc(C)cc(N)n1 [Compound 25] the IC50 [2, 11] was 685 ± 127 nM.
Cc1cc(N)nc(CCCF)c1 [Compound 52] gave an IC50 [4] of 1430 ± 158 nM, an IC50 [5] of 514 ± 83.3 nM and an IC50 [2, 11] of 57.6 ± 5.3 nM. The IC50 [2, 12] was under 190 nM and the IC50 [2, 13] was 57.6 ± 5.3 nM.
Compound C/C=C/c1cc(C)cc(N)n1 [DZ(III)-73] has an IC50 [2, 11] of 282 ± 48.6 nM.
Compound Cc1cc(N)nc(CC(C)O)c1 (stereo not shown) [DZ(III)-77/Compound 14] has an IC50 [2, 11] of 1780 ± 395 nM.
In the case of Cc1cc(N)nc(CC(C)CCF)c1 (stereo not shown) [DZ(IV)-93], the IC50 [2, 11] is reported as 731 ± 87 nM.
In the case of Cc1cc(N)nc(CCCCF)c1 [DZ(IV)-120], the IC50 [2, 11] is reported as 170 ± 26.5 nM.
In the case of CCSC(=N)N [SEITU, S-ethylisothiourea, reference compound], the IC50 [2, 10] is listed as 30.5 ± 4.6 nM and the Ki ([3]; reported value) is listed as 32 nM.
For Cc1cc(N)nc(CC(C)[18F])c1 (stereo not shown) [[^18F]compound 14], the “activity recovered from lysed whole blood observed as parent” value ([6]; 1 h) was “approximately 80%”, the “recovered activity still in the form of parent” value ([6]; 2 h) was “approximately 75%” and the “Biodistribution Blood” value ([7]; Control mice, 5 min) was 2.37 ± 0.18 % ID/g. The “Biodistribution Bone” value ([7]; Control mice, 5 min) was 1.52 ± 0.36 % ID/g, the “Biodistribution Brain” value ([7]; Control mice, 5 min) was 1.60 ± 0.17 % ID/g and the “Biodistribution Heart” value ([7]; Control mice, 5 min) was 1.50 ± 0.12 % ID/g. For the same compound, the “Biodistribution Kidney” value ([7]; Control mice, 5 min) was 20.6 ± 2.4 % ID/g, the “Biodistribution Liver” value ([7]; Control mice, 5 min) was 33.2 ± 3.3 % ID/g and the “Biodistribution Lung” value ([7]; Control mice, 5 min) was 3.33 ± 0.28 % ID/g. The “Biodistribution Muscle” value ([7]; Control mice, 5 min) was 1.25 ± 0.06 % ID/g, the “Biodistribution Blood” value ([7]; Control mice, 30 min) was 1.22 ± 0.16 % ID/g and the “Biodistribution Bone” value ([7]; Control mice, 30 min) was 2.26 ± 0.55 % ID/g. The “Biodistribution Brain” value ([7]; Control mice, 30 min) was 0.28 ± 0.02 % ID/g, the “Biodistribution Heart” value ([7]; Control mice, 30 min) was 0.60 ± 0.05 % ID/g and the “Biodistribution Kidney” value ([7]; Control mice, 30 min) was 7.30 ± 0.66 % ID/g. The “Biodistribution Liver” value ([7]; Control mice, 30 min) was 10.7 ± 0.3 % ID/g, the “Biodistribution Lung” value ([7]; Control mice, 30 min) was 1.14 ± 0.13 % ID/g and the “Biodistribution Muscle” value ([7]; Control mice, 30 min) was 0.71 ± 0.31 % ID/g. The “Biodistribution Blood” value ([7]; Control mice, 1 h) was 0.31 ± 0.04 % ID/g, the “Biodistribution Bone” value ([7]; Control mice, 1 h) was 2.57 ± 0.64 % ID/g and the “Biodistribution Brain” value ([7]; Control mice, 1 h) was 0.11 ± 0.02 % ID/g. For the same compound, the “Biodistribution Heart” value ([7]; Control mice, 1 h) was 0.19 ± 0.02 % ID/g, the “Biodistribution Kidney” value ([7]; Control mice, 1 h) was 2.20 ± 0.25 % ID/g and the “Biodistribution Liver” value ([7]; Control mice, 1 h) was 2.59 ± 0.49 % ID/g. The “Biodistribution Lung” value ([7]; Control mice, 1 h) was 0.31 ± 0.06 % ID/g, the “Biodistribution Muscle” value ([7]; Control mice, 1 h) was 0.27 ± 0.18 % ID/g and the “Biodistribution Blood” value ([7]; Control mice, 2 h) was 0.27 ± 0.22 % ID/g. For the same compound, the “Biodistribution Bone” value ([7]; Control mice, 2 h) was 5.59 ± 4.20 % ID/g, the “Biodistribution Brain” value ([7]; Control mice, 2 h) was 0.07 ± 0.03 % ID/g and the “Biodistribution Heart” value ([7]; Control mice, 2 h) was 0.08 ± 0.02 % ID/g. For the same compound, the “Biodistribution Kidney” value ([7]; Control mice, 2 h) was 0.80 ± 0.27 % ID/g, the “Biodistribution Liver” value ([7]; Control mice, 2 h) was 0.74 ± 0.23 % ID/g and the “Biodistribution Lung” value ([7]; Control mice, 2 h) was 0.15 ± 0.03 % ID/g. For the same compound, the “Biodistribution Muscle” value ([7]; Control mice, 2 h) was 0.34 ± 0.27 % ID/g, the “tracer uptake, LPS-treated vs non-treated mice” value ([7]; LPS 10 mg/kg intravenously, Table 4 and FIG. 11) was “greater uptake” and the “Biodistribution Blood” value ([7]; LPS treated mice, 5 min) was 3.69 ± 0.38 % ID/g. For the same compound, the “Biodistribution Bone” value ([7]; LPS treated mice, 5 min) was 1.59 ± 0.15 % ID/g, the “Biodistribution Brain” value ([7]; LPS treated mice, 5 min) was 1.81 ± 0.09 % ID/g and the “Biodistribution Heart” value ([7]; LPS treated mice, 5 min) was 2.03 ± 0.06 % ID/g. For the same compound, the “Biodistribution Kidney” value ([7]; LPS treated mice, 5 min) was 26.7 ± 4.1 % ID/g, the “Biodistribution Liver” value ([7]; LPS treated mice, 5 min) was 24.6 ± 3.1 % ID/g and the “Biodistribution Lung” value ([7]; LPS treated mice, 5 min) was 4.32 ± 0.32 % ID/g. For the same compound, the “Biodistribution Muscle” value ([7]; LPS treated mice, 5 min) was 1.64 ± 0.09 % ID/g, the “Biodistribution Blood” value ([7]; LPS treated mice, 30 min) was 2.09 ± 0.35 % ID/g and the “Biodistribution Bone” value ([7]; LPS treated mice, 30 min) was 3.70 ± 1.20 % ID/g. The “Biodistribution Brain” value ([7]; LPS treated mice, 30 min) was 0.52 ± 0.15 % ID/g, the “Biodistribution Heart” value ([7]; LPS treated mice, 30 min) was 1.02 ± 0.16 % ID/g and the “Biodistribution Kidney” value ([7]; LPS treated mice, 30 min) was 10.9 ± 2.8 % ID/g. For the same compound, the “Biodistribution Liver” value ([7]; LPS treated mice, 30 min) was 7.06 ± 0.28 % ID/g, the “Biodistribution Lung” value ([7]; LPS treated mice, 30 min) was 1.84 ± 0.27 % ID/g and the “Biodistribution Muscle” value ([7]; LPS treated mice, 30 min) was 1.06 ± 0.40 % ID/g. For the same compound, the “Biodistribution Blood” value ([7]; LPS treated mice, 1 h) was 0.86 ± 0.09 % ID/g, the “Biodistribution Bone” value ([7]; LPS treated mice, 1 h) was 4.30 ± 0.90 % ID/g and the “Biodistribution Brain” value ([7]; LPS treated mice, 1 h) was 0.19 ± 0.03 % ID/g. The “Biodistribution Heart” value ([7]; LPS treated mice, 1 h) was 0.41 ± 0.10 % ID/g, the “Biodistribution Kidney” value ([7]; LPS treated mice, 1 h) was 3.95 ± 0.53 % ID/g and the “Biodistribution Liver” value ([7]; LPS treated mice, 1 h) was 2.63 ± 0.52 % ID/g. The “Biodistribution Lung” value ([7]; LPS treated mice, 1 h) was 0.73 ± 0.17 % ID/g, the “Biodistribution Muscle” value ([7]; LPS treated mice, 1 h) was 0.78 ± 0.47 % ID/g and the “Biodistribution Blood” value ([7]; LPS treated mice, 2 h) was 0.23 ± 0.05 % ID/g. The “Biodistribution Bone” value ([7]; LPS treated mice, 2 h) was 3.77 ± 1.41 % ID/g, the “Biodistribution Brain” value ([7]; LPS treated mice, 2 h) was 0.07 ± 0.03 % ID/g and the “Biodistribution Heart” value ([7]; LPS treated mice, 2 h) was 0.12 ± 0.04 % ID/g. The “Biodistribution Kidney” value ([7]; LPS treated mice, 2 h) was 0.91 ± 0.63 % ID/g, the “Biodistribution Liver” value ([7]; LPS treated mice, 2 h) was 0.42 ± 0.15 % ID/g and the “Biodistribution Lung” value ([7]; LPS treated mice, 2 h) was 0.18 ± 0.09 % ID/g. The “Biodistribution Muscle” value ([7]; LPS treated mice, 2 h) was 0.23 ± 0.13 % ID/g, the “tracer accumulation in lungs (microPET)” value [8] was “accumulated in the lungs of the LPS-treated mouse, but not in the control mouse” and the “activity in the blood that was parent compound” value ([9]; 5 minutes post injection) was 40.3%. The “major (very polar) metabolite, share of the activity in blood” value ([9]; 5 minutes post injection, HPLC) was 50% and the percent parent compound ([9]; plasma, 30 minutes post injection) was 20.2%.
